Data: patent US20100298305A1, “TIZANIDINE FOR THE TREATMENT OF POST-TRAUMATIC STRESS DISORDER AND NIGHTMARES” (The United States Government, as represented by the …, priority 2008, published 2010)
Where two headings read alike, the source gives them in different places.

Legend:
PTSD [1] = test: Example 1 case summaries 1-6: tizanidine as adjunctive treatment for PTSD, anxiety, depression, psychosis or impaired cognition; type: in vivo, human; conditions: for signs or symptoms: Case 3, more than two years, sertraline 250 mg daily, divalproex sodium 2500 mg daily, quetiapine 100 mg twice daily and 400 mg at bedtime, amitriptyline 25 mg at bedtime, tramadol 50 mg as needed
Method: Treatment was begun with sertraline 100 mg per day for anxiety and nortriptyline 25 mg at bedtime for headaches. […] Treatment with tizanidine was started and the dose was increased to 8 mg at bedtime.
Tizanidine was started and titrated up to 4 mg at bedtime along with aripiprazole (15 mg at bedtime) and clonazepam (0.5 mg daily).
These medications included sertraline (250 mg daily), divalproex sodium (2500 mg daily), quetiapine (100 mg twice daily and 400 mg at bedtime), amitriptyline (25 mg at bedtime), and tramadol (50 mg as needed for severe headache). […] A trial of tizanidine was started and the dose was titrated up to 8 mg at bedtime.
Pharmacologic Treatment and Response: While on the psychiatry unit, they were treated with sertraline for PTSD and nortriptyline for headaches and depression. […] They were started on tizanidine 4 mg at bedtime.
After approximately one year, subject agreed to a trial of tizanidine as an addition to sertraline. […] They agreed to increase the dose to 4 mg at bedtime and follow-up in four weeks. […] An atypical antipsychotic medication, aripiprazole, was added to their medications.
Treatment with tizanidine 4 mg at bedtime was added to the existing sertraline.

PTSD [2] = test: Example 2 case summaries 7-9: switching from once to twice-daily dosing of tizanidine; conditions: for improvement on medications: approximately one year, doses close to the maximum recommended dose
Method: They were continued on aripiprazole, quetiapine, sertraline, and trazodone. Treatment with tizanidine was started for the nightmares and poor sleep.
They were switched from tizanidine 8 mg at bedtime to tizanidine 6 mg in the morning and 8 mg at bedtime. […] They continued on the sertraline, divalproex, and trazodone for initial insomnia. The tizanidine was switched to 4 mg in the morning and 4 mg at bedtime.
Subject was started on tizanidine up to 8 mg at bedtime for nightmares. They also were issued a device to assist with memory problems. A rating scale for common cognitive problems was administered by speech pathology prior to issuing them a personal digital assistant as a memory assist device.
They continued to take sertraline and tizanidine. At a psychology evaluation session, subject completed two self-report instruments of PTSD and depressive symptoms to establish a baseline indication of symptom severity. […] Subject was then switched from tizanidine 8 mg at bedtime to 4 mg twice daily.
After approximately one year of being followed in the psychiatry clinic, they became more willing to try medication and agreed to a trial of tizanidine.

PTSD [3] = conditions: Case 10; for ADHD symptoms: earlier medication trials during military service
Excerpt: Given the prior history of ADHD, methylphenidate was cautiously added to the venlafaxine. […] They were referred to a specialty inpatient program for PTSD. During the inpatient program, the antidepressant was switched from venlafaxine to duloxetine.

[4] = Case 1, sertraline 100 mg per day with nortriptyline 25 mg at bedtime, after four weeks
[5] = Case 4, sertraline with nortriptyline, five days after hospital discharge
[6] = Case 8, sertraline 150 mg per day, two months later

**Q.** How did the signs or symptoms (PTSD [1]) turn out when `CN(C)CCC=C1c2ccccc2CCc2ccccc21` [amitriptyline] was run?
**A.** None of these medications significantly reduced their signs or symptoms

**Q.** Which “anxiety, depression, and psychosis” value (PTSD [1]; [4]) does the source give for `CN[C@H]1CC[C@@H](c2ccc(Cl)c(Cl)c2)c2ccccc21` [sertraline] here?
**A.** only a modest decrease

**Q.** What about the “intensity and frequency of nightmares” value (PTSD [1]; [4]) of the same molecule?
**A.** unchanged

**Q.** What about the “anxiety, nightmares, and psychosis” value (PTSD [1]; Case 2, sertraline 200 mg daily, bupropion 150 mg twice daily and prazosin 5 mg at bedtime, one year) of the same molecule?
**A.** only a mild impact

**Q.** What about the signs or symptoms (PTSD [1]) of the same molecule?
**A.** None of these medications significantly reduced their signs or symptoms

**Q.** And the hallucinations and paranoia (PTSD [1]; [5])?
**A.** improvements regarding hallucinations and paranoia

**Q.** And the “sleep problems and nightmares” value (PTSD [1]; [5])?
**A.** persistent sleep problems and nightmares

**Q.** What about the “response to medication changes” value (PTSD [1]; Case 5, sertraline increased to 200 mg per day with sodium divalproex and aripiprazole added, twelve months) of the same molecule?
**A.** only a modest response

**Q.** And the treatment results (PTSD [1]; Case 5, sertraline since release from military duty)?
**A.** poor results

**Q.** What about the “PTSD signs and symptoms” value (PTSD [1]; Case 6, sertraline up to 200 mg per day, approximately one year) of the same molecule?
**A.** only modest improvement

**Q.** And the improvement on medications (PTSD [2]; Case 7)?
**A.** only modest improvement

**Q.** What about the anxiety symptoms (PTSD [2]; [6]) of the same molecule?
**A.** responded well

**Q.** What about the irritability (PTSD [2]; [6]) of the same molecule?
**A.** not improved

**Q.** For `O=c1n(CCCN2CCN(c3cccc(Cl)c3)CC2)nc2ccccn12` [trazodone], which improvement on medications (PTSD [2]; Case 7) is on record?
**A.** only modest improvement

**Q.** With `Cc1ccc(-c2nc3ccc(C)cn3c2CC(=O)N(C)C)cc1` [zolpidem] as the molecule, how does the nightmares (PTSD [2]; Case 8, initial treatment with zolpidem) read?
**A.** did not improve the nightmares

**Q.** How did the ADHD symptoms (PTSD [3]) turn out when `CC(NC(C)(C)C)C(=O)c1cccc(Cl)c1` (stereo not shown) [bupropion] was run?
**A.** neither of which were effective

**Q.** What does the source list for `CCCC(CCC)C(=O)O` [divalproex sodium]?
**A.** signs or symptoms (PTSD [1]): None of these medications significantly reduced their signs or symptoms; improvement on medications (PTSD [2]; Case 7): only modest improvement

**Q.** What does the source list for `COC(=O)C(c1ccccc1)C1CCCCN1` (stereo not shown) [methylphenidate]?
**A.** ADHD symptoms (PTSD [3]): neither of which were effective; mood and anxiety symptoms (PTSD [3]; methylphenidate added to venlafaxine): marked improvement; mood and anxiety symptoms (PTSD [3]; methylphenidate as monotherapy, several weeks): improved mood and anxiety symptoms; mood, anxiety, and cognitive symptoms (PTSD [3]; short-acting methylphenidate 10 mg three times daily): additional improvements

**Q.** Which improvement on medications (PTSD [2]; Case 7) does the source give for `O=C1CCc2ccc(OCCCCN3CCN(c4cccc(Cl)c4Cl)CC3)cc2N1` [aripiprazole] here?
**A.** only modest improvement

**Q.** For `OCCOCCN1CCN(C(c2ccccc2)c2ccc(Cl)cc2)CC1` (stereo not shown) [hydroxyzine], which improvement on medications (PTSD [2]; Case 7) is on record?
**A.** only modest improvement

**Q.** `COc1cc2nc(N3CCN(C(=O)c4ccco4)CC3)nc(N)c2cc1OC` [prazosin] was tested. Which nightmares (PTSD [1]; Case 2, prazosin 5 mg at bedtime added, sertraline increased to 200 mg daily) did it give?
**A.** reduced but did not eliminate nightmares

**Q.** Which “helpfulness as judged by subject” value (PTSD [3]; antidepressant switched from venlafaxine to duloxetine) does the source give for `CNCC[C@H](Oc1cccc2ccccc12)c1cccs1` [duloxetine] here?
**A.** did not believe the duloxetine was helpful

**Q.** `COc1cccc(C2(O)CCCCC2CN(C)C)c1` (stereo not shown) [tramadol] was tested. Which signs or symptoms (PTSD [1]) did it give?
**A.** None of these medications significantly reduced their signs or symptoms

**Q.** Which results are given for `OCCOCCN1CCN(C2=Nc3ccccc3Sc3ccccc32)CC1` [quetiapine]?
**A.** hallucinations (PTSD [1]; Case 2, trial of quetiapine): did not affect the hallucinations; signs or symptoms (PTSD [1]): None of these medications significantly reduced their signs or symptoms; improvement on medications (PTSD [2]; Case 7): only modest improvement

**Q.** How did the “frequency of combined visual-olfactory hallucinations” value (PTSD [2]; Case 7, recent addition of topiramate) turn out when `CC1(C)O[C@@H]2[C@@H](CO[C@@]3(COS(N)(=O)=O)OC(C)(C)O[C@@H]23)O1` [topiramate] was run?
**A.** did not reduce the frequency

**Q.** With `COc1ccc(C(CN(C)C)C2(O)CCCCC2)cc1` (stereo not shown) [venlafaxine] as the molecule, how does the condition (PTSD [1]; Case 2, sertraline switched to venlafaxine up to 300 mg daily, six months) read?
**A.** did not significantly change their condition

**Q.** What about the “mood and anxiety symptoms” value (PTSD [3]; venlafaxine sustained-release 225 mg per day with zolpidem 10 mg at bedtime) of the same molecule?
**A.** only modestly improved

**Q.** What about the adverse effect (PTSD [2]; Case 8, Venlafaxine up to 150 mg daily) of the same molecule?
**A.** developed akathisia
